Assay results from patent US20080233242A1, “Antioxidant of Bamboo Leaves and Its Uses” (priority 2003, published 2008).

Test system: lipid oxidation in Jinhua ham
Test: Antioxidation and sensory quality of Jinhua ham slices (AV, POV, chromatic aberration)
Details: ham slice soaked 2 min in 0.03% solution, stored at 50±1° C. for 11 days, versus control group
Procedure: AOB was dissolved in water to produce a 0.03% solution, TBHQ (previously dissolved in ethanol) in the same concentration as control. A slice of Jinhua ham with a thickness of 1 cm was soaked for 2 min, and the effects of AOB on antioxidation and sensory quality of the slice of Jinhua ham were compared.

With CC(C)(C)c1cc(O)ccc1O [TBHQ, tert-butyl hydroquinone] the “lipid oxidation (AV and POV)” value was “significantly inhibited”.
